Assay results as given in ChEMBL document CHEMBL1201862, “PubChem BioAssay data set” (2004).
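Five compound concentrations were applied to cells in 96-well plates for 48 hours; endpoints were derived by simple linear interpolation of the resulting dose-response curve. GI50: concentration for 50% inhibition of growth.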 The source made the active and inactive calls. No stated cut-off is given here; in the data, active = GI50 up to about 1.1 µM and inactive = higher.

Legend:
Assay in all cases: DTP human tumour cell line panel, 48 h
SN12C = test system: SN12C
NCI-H23 = test system: NCI-H23
T47D = test system: T47D
NCI-H226 = test system: NCI-H226
UACC-62 = test system: UACC-62
MDA-MB-435 = test system: MDA-MB-435
786-0 = test system: 786-0
Hs-578T = test system: Hs-578T
Malme-3M = test system: Malme-3M
OVCAR-4 = test system: OVCAR-4
CAKI-1 = test system: CAKI-1
SF-295 = test system: SF-295
SW-620 = test system: SW-620
IGROV-1 = test system: IGROV-1
UO-31 = test system: UO-31
HOP-62 = test system: HOP-62
M14 = test system: M14
LOX IMVI = test system: LOX IMVI
HCT-116 = test system: HCT-116
NCI-H522 = test system: NCI-H522

Measured: GI50

O=C1OC(C(O)CO)C(C(O)CO)OC1=O (centres undefined)
inactive: SN12C > 10 µM | NCI-H23 > 10 µM | T47D > 10 µM | NCI-H226 > 10 µM | UACC-62 > 10 µM | MDA-MB-435 > 10 µM | 786-0 > 10 µM | Hs-578T > 10 µM | Malme-3M > 10 µM | OVCAR-4 > 10 µM | CAKI-1 > 10 µM | SF-295 > 10 µM | SW-620 > 10 µM | IGROV-1 > 10 µM | UO-31 > 10 µM | HOP-62 > 10 µM | M14 > 10 µM

C=C(C)CCC(=O)[C@](C)(O)[C@H]1[C@H](O)C[C@@]2(C)[C@@H]3CCc4c(cc(OC5OC(CO)C(O)C(O)C5O)c(O)c4C)C3(C)C(=O)C[C@]12C (some centres undefined)
inactive: SN12C > 100 µM | NCI-H23 > 100 µM | T47D > 100 µM | NCI-H226 > 100 µM | UACC-62 > 100 µM | MDA-MB-435 > 100 µM | 786-0 > 100 µM | Malme-3M > 100 µM | OVCAR-4 > 100 µM | LOX IMVI > 100 µM | CAKI-1 > 100 µM | SF-295 > 100 µM | HCT-116 > 100 µM | SW-620 > 100 µM | IGROV-1 > 100 µM | NCI-H522 > 100 µM | UO-31 > 100 µM | HOP-62 > 100 µM | M14 > 100 µM

O=C1Nc2ccccc2/C1=N/Nc1nc(-c2ccc(Cl)c(Cl)c2)cs1
inactive: SN12C > 100 µM | NCI-H23 46.1 µM | T47D 26 µM | NCI-H226 > 100 µM | MDA-MB-435 72.1 µM | 786-0 > 100 µM | OVCAR-4 77.6 µM | LOX IMVI > 100 µM | CAKI-1 5.69 µM | SF-295 > 100 µM | HCT-116 90.6 µM | SW-620 > 100 µM | IGROV-1 9.73 µM | UO-31 7.01 µM | HOP-62 > 100 µM | M14 78.5 µM

CC1NOC(NS(=O)(=O)c2ccc(/N=N/c3c(O)c(C(=O)O)cc4ccccc34)cc2)C1C (centres undefined)
inactive: NCI-H226 > 100 µM | UACC-62 > 100 µM | MDA-MB-435 > 100 µM | 786-0 > 100 µM | Hs-578T > 100 µM | Malme-3M > 100 µM | OVCAR-4 > 100 µM | CAKI-1 > 100 µM | SF-295 > 100 µM | HCT-116 > 100 µM | SW-620 > 100 µM | IGROV-1 > 100 µM | NCI-H522 72.4 µM | UO-31 55 µM | HOP-62 > 100 µM | M14 > 100 µM

C1=CC(=[N+]2N=C(c3ccccc3)CC2c2ccccc2)C=CC1=C1SC(c2ccccc2)(c2ccccc2)c2ccccc21.[O-][Cl+3]([O-])([O-])[O-] (centres undefined)
inactive: SN12C > 100 µM | NCI-H23 > 100 µM | T47D > 100 µM | NCI-H226 > 100 µM | UACC-62 > 100 µM | MDA-MB-435 > 100 µM | 786-0 > 100 µM | Hs-578T > 100 µM | Malme-3M > 100 µM | SF-295 61.8 µM | HCT-116 93.5 µM | SW-620 > 100 µM | IGROV-1 > 100 µM | UO-31 > 100 µM | HOP-62 > 100 µM | M14 60.8 µM

CC1(C)C(O)C[C@]23CCC[C@](C)(C[C@@H](O)C12)C3 (some centres undefined)
inactive: SN12C > 100 µM | NCI-H23 > 100 µM | NCI-H226 > 100 µM | UACC-62 > 100 µM | MDA-MB-435 > 100 µM | 786-0 32.9 µM | Hs-578T > 100 µM | Malme-3M > 100 µM | OVCAR-4 > 100 µM | LOX IMVI > 100 µM | CAKI-1 > 100 µM | SF-295 > 100 µM | SW-620 > 100 µM | IGROV-1 > 100 µM | NCI-H522 > 100 µM | UO-31 > 100 µM | HOP-62 > 100 µM | M14 > 100 µM

CCCCN(CCCC)C(=C(C(Cl)=C(Cl)Cl)[N+](=O)[O-])N(CCCC)CCCC
inactive: SN12C > 100 µM | NCI-H23 82.2 µM | T47D 73.8 µM | NCI-H226 > 100 µM | UACC-62 87.3 µM | MDA-MB-435 > 100 µM | 786-0 > 100 µM | Malme-3M > 100 µM | OVCAR-4 > 100 µM | CAKI-1 > 100 µM | SF-295 > 100 µM | HCT-116 67.9 µM | NCI-H522 48.3 µM | UO-31 > 100 µM | HOP-62 > 100 µM | M14 > 100 µM

C/C=C\C(CC(=O)O)CC(=O)NCCC1CN(S(=O)(=O)C(F)(F)F)c2ccccc21 (centres undefined)
inactive: NCI-H23 > 100 µM | UACC-62 > 100 µM | MDA-MB-435 > 100 µM | 786-0 > 100 µM | Hs-578T > 100 µM | Malme-3M > 100 µM | OVCAR-4 > 100 µM | LOX IMVI > 100 µM | CAKI-1 > 100 µM | SF-295 > 100 µM | HCT-116 > 100 µM | SW-620 > 100 µM | IGROV-1 > 100 µM | NCI-H522 > 100 µM | UO-31 > 100 µM | HOP-62 > 100 µM | M14 > 100 µM

COc1cccc(NC(=O)CC(=O)Nc2cccc(OC)c2)c1
inactive: SN12C > 100 µM | NCI-H23 > 100 µM | NCI-H226 > 100 µM | UACC-62 > 100 µM | MDA-MB-435 > 100 µM | 786-0 > 100 µM | Hs-578T > 100 µM | Malme-3M > 100 µM | OVCAR-4 > 100 µM | LOX IMVI > 100 µM | CAKI-1 > 100 µM | SF-295 > 100 µM | HCT-116 > 100 µM | SW-620 > 100 µM | IGROV-1 > 100 µM | NCI-H522 > 100 µM | UO-31 > 100 µM | HOP-62 > 100 µM | M14 > 100 µM

O=[N+]([O-])c1nccn1CC1OC(n2ccnc2[N+](=O)[O-])C(O)C(O)C1O (centres undefined)
inactive: NCI-H23 > 100 µM | T47D 23.9 µM | NCI-H226 > 100 µM | UACC-62 > 100 µM | 786-0 > 100 µM | Hs-578T > 100 µM | Malme-3M > 100 µM | HCT-116 > 100 µM | SW-620 > 100 µM | UO-31 > 100 µM | HOP-62 > 100 µM | M14 > 100 µM

CC(=O)C1C(=O)C(=O)N(c2ccc([N+](=O)[O-])cc2Cl)C1=O (centres undefined)
inactive: SN12C > 100 µM | NCI-H23 > 100 µM | NCI-H226 > 100 µM | UACC-62 > 100 µM | MDA-MB-435 > 100 µM | 786-0 > 100 µM | Hs-578T > 100 µM | OVCAR-4 > 100 µM | LOX IMVI > 100 µM | CAKI-1 > 100 µM | SF-295 > 100 µM | HCT-116 > 100 µM | SW-620 > 100 µM | IGROV-1 > 100 µM | NCI-H522 > 100 µM | UO-31 56.1 µM | HOP-62 > 100 µM | M14 > 100 µM
